Experimental findings from ChEMBL document CHEMBL1150710, “Cytotoxic steroids of Gelsemium sempervirens” (1987) are described below.

Values after ≈ are worked out from the molar mass of the structure shown. Active and inactive are the calls of the source. The calls are words filed in the database; no cut-off is given here.

For one assay, the system named is KB. Nature of the assay: Cytotoxicity against human KB cells. The following applies: for EC50: read-out: ED50 (the source's name). It is filed as functional.
For another assay, the system named is P388. The assay can be described thus: Cytotoxicity against mouse P388 cells. It is filed as functional. The following applies: for EC50: read-out: ED50 (the source's name).

Turning to `C=C[C@]12CN(C)[C@@H]3[C@H]4CO[C@H](C[C@H]41)[C@]1(C(=O)N(OC)c4ccccc41)[C@@H]32`, the ED50 result with KB and in the assay with P388 was “inactive” throughout.
Turning to `CCC1=N[C@H]2C[C@@]3(C(=O)N(OC)c4ccccc43)[C@@H]3OC[C@H]2[C@H]1[C@@H]3O`, the ED50 entry with KB and in the assay with P388 was “inactive” throughout.
For the compound `C[C@H]1[C@H](C)CC[C@]2(C(=O)O)CC[C@]3(C)C(=CC[C@@H]4[C@@]5(C)CC[C@H](O)C(C)(C)[C@@H]5CC[C@]43C)[C@H]12`, the ED50 result in the assay with KB and in the assay on P388 was “inactive” throughout.
With `CC(=O)C1=CC[C@H]2[C@@H]3CC[C@H]4CC(=O)CC[C@]4(C)[C@H]3C[C@@H](O)[C@]12C`, the EC50 stood at 0.7 mg/L (≈ 2.12 µM) in the assay with KB and 0.9 mg/L (≈ 2.72 µM) in the assay on P388.
Turning to `CC[C@H]1N[C@H]2C[C@@]3(C(=O)N(OC)c4ccccc43)[C@H]3C[C@@H]1[C@@H]2CO3`, the ED50 entry with KB and in the assay on P388 was “inactive” each time.
For the compound `C/C=C1\CN2[C@H]3C[C@H]1[C@H](CO)[C@@H]2Cc1c3[nH]c2ccccc12`, the ED50 entry in the assay with KB and in the assay on P388 was “inactive” throughout.
For the compound `C=C[C@]12C(=O)N(C)[C@@H]3[C@H]4CO[C@H](C[C@H]41)[C@]1(C(=O)Nc4ccccc41)[C@@H]32`, the ED50 result in the assay on KB and in the assay with P388 was “inactive” each time.
Consider `CC(=O)C1=CC[C@H]2[C@@H]3CCC4=CC(=O)CC[C@]4(C)[C@H]3C[C@@H](O)[C@]12C`, for which the EC50 with KB worked out at 2 mg/L (≈ 6.09 µM); in the assay on P388 it was 2.8 mg/L (≈ 8.52 µM).
With `CC[C@H]1N[C@H]2C[C@@]3(C(=O)N(OC)c4ccccc43)[C@@H]3OC[C@H]2[C@H]1[C@@H]3O`, the ED50 result in the assay with KB and in the assay on P388 was “inactive” each time.
As to `C=C[C@]12CN(C)[C@@H]3[C@H]4CO[C@H](C[C@H]41)[C@]1(C(=O)Nc4ccccc41)[C@@H]32`, the ED50 result in the assay on KB and in the assay with P388 was “inactive” in each case.
With `C/C=C1\CN(C)[C@H]2C[C@@]3(C(=O)N(OC)c4ccccc43)[C@H]3C[C@@H]1[C@@H]2CO3`, the ED50 entry in the assay on KB and with P388 was “inactive” throughout.
As to `COc1cc2ccc(=O)oc2cc1O`, the ED50 result with KB and in the assay with P388 was “inactive” each time.
Take `CCC1=N[C@H]2C[C@@]3(C(=O)N(OC)c4ccccc43)[C@H]3C[C@@H]1[C@@H]2CO3`: the ED50 entry in the assay with KB and in the assay on P388 was “inactive” in each case.
